Test results taken from paper PMC6120666 (The EMBO Journal, 2018).

Columns and labels:
[1] = system: U2OS/NOD2, THP1, RAW264.7 and HEKBlue cells; assay: CellTiter-Glo viability assay; assay type: cell-based; conditions: U2OS/NOD2, THP1, RAW264.7, HEKBlue; 24 h; up to 1 µM
Description: Cell viability was determined using CellTiter‐Glo assay (Promega). […] Kinase activities were determined using ADPGlo assay (Promega). • Structure of the active conformation of RIPK2 kinase domain in complex with AMP‐PNP (PDB ID: 5AR3). Figure depicts locations of the adenine and deep pockets. […] Key residues discussed in the text are shown as sticks (Lys/Glu Glu‐in bond—bottom left, catalytic Asp residues (Asp146/Asp164)—bottom right, R‐spine—right). P‐loop of CSLP18 structure is shown in yellow. Structured segment of activation segment (AS) observed in active conformation structures is shown in red. • Structure of RIPK2 kinase domain (gray ribbons) in complex with CSLP18 (orange) (PDB ID 6FU5). Sticks are shown for residues in the vicinity of the cavity surrounding the key inhibitor position R1. A 2Fo‐Fc electron density map contoured at 1 sigma is shown for the inhibitor and the residues lining the key region around inhibitor R^1 position. • Molecular docking model of RIPK2 kinase domain in complex with CSLP37 (yellow) based on RIPK2/CSLP18 structure (Fig 3D). […]
GST-BIR2-XIAP as indicated. Intensity quantification of SPOTs was performed using ImageJ software (Schneider et al., 2012). […]
for cell death) or vehicle for 24h. Viability was determined using the CellTiter-Glo® luminescent cell […]

[2] = target: T1, cIAP1 BIR2 - RIPK2 interaction (Homo sapiens, UniProt O43353); assay: GST-BIR2-cIAP1 pulldown of RIPK2; assay type: binding; conditions: U2OS/NOD2 lysates; CSLP37 1.8 μM, CSLP43 2 μM
T1 construct: Pulldown of RIPK2 from U2OS/NOD2 cell lysates with recombinant; endogenous in cells; host or cells: U2OS/NOD2 cell lysate (RIPK2); E. coli BL21 (GST-BIR2-cIAP1)
Description: Figure EV4 Inhibition of RIPK2 ubiquitination and cIAP1 binding by CSLP inhibitors • A Coomassie Blue staining of His Trap and gel filtration purified His6‐GST‐XIAP‐BIR2 WT and D214S recombinant proteins at two different concentrations as indicated. • B Pulldown of RIPK2 from U2OS/NOD2 cell lysates with recombinant GST‐BIR2‐cIAP1 in the presence of CSLP inhibitors. […] Purified material and lysates were analyzed by immunoblotting. • C, D Purification of Ub‐conjugates from U2OS/NOD2 cells (C) or THP‐1 cells (D) after treatment with L18‐MDP (200 ng/ml, 1 h) and CSLP compounds as indicated. Purified material and lysates were analyzed by immunoblotting. […]
For co‐immunoprecipitation of HA‐XIAP with RIPK2, transfected and treated cells were lysed in TBS buffer containing 0.5% NP‐40, cOmplete and PhosSTOP inhibitors (Roche) and the lysate was cleared by centrifugation. The lysates were incubated with anti‐HA‐agarose overnight, washed 3× with lysis buffer, and analyzed by immunoblotting. […] Bound material was washed 3× with lysis buffer or PBS, eluted with 15 mM Glutathione in PBS, and analyzed by immunoblotting. […] The bound material was eluted and analyzed as described above. Ubiquitin conjugates were purified from treated cells using GST‐1xUBA^ubq ubiquitin affinity reagent (termed TUBE pulldown) and analyzed by immunoblotting as described (Fiil et al, 2013). […]

T1 sequence (O43353 whole entry): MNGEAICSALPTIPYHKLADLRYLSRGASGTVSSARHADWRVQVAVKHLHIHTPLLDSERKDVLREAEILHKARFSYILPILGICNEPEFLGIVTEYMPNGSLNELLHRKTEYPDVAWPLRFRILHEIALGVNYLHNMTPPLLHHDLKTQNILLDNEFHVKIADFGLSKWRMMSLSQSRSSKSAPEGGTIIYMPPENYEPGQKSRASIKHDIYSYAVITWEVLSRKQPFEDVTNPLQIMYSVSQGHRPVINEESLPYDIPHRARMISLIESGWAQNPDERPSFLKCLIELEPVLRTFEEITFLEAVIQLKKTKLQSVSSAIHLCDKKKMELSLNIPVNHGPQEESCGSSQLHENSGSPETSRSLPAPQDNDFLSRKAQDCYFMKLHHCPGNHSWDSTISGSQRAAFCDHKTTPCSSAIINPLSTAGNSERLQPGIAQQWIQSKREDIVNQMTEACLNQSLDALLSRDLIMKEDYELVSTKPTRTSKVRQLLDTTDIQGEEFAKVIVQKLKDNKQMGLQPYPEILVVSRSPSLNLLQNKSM

| Structure (SMILES) | toxicity in the cell lines used [1] | interaction between GST-BIR2-cIAP1 and RIPK2 in cell lysates [2] |
| --- | --- | --- |
| CCCS(=O)(=O)Nc1cc(-c2cc(-c3ccc(N4CCNCC4)cc3)cnc2N)cc(F)c1OC [CSLP37] | did not have measurable toxicity | both antagonized |
| CCCS(=O)(=O)Nc1cc(-c2cc(-c3ccc(N4CCNCC4)cc3)cnc2N)cc(OC)c1OC [CSLP43] | did not have measurable toxicity | both antagonized |
